# Assays:
# [1] = test system: sugar beet (Beta vulgaris); test: Glyphosate selection of mutagenized (EMS/ENU) M2 sugar beet plants, field spray then greenhouse treatment; type: in vivo; details: 600 g/ha glyphosate acid equivalent
# Description: 6 kg seeds of sugar beet elite line T807 (3BT1760, MO population) were mutagenized with 0.5% EMS and 0.3% and 0.5%, respectively ENU, and subsequently drilled for steck production. Stecks were replanted for seed production occupying an area of 5.8 ha. M1 population sizes were 75,000 seed producing plants for EMS and 19,000 plants for ENU mutagenized seeds. The following M2 seed amounts (values given for purified seed) has been obtained: 240 kg for 0.5% EMS (idents A and B), 548 kg for 0.3% ENU (idents C and D), and 256 kg 0.5% ENU (idents E and F).
# 176 kg of idents A and B and 75 kg of idents C, D, E and F were sown on an approximately 15 ha spanning field site. Approximately 1 month after sowing, the entire field was sprayed with 0.88 I/ha ROUNDUP® MAX (680 g/kg glyphosate acid equivalent). Approximately 6 weeks later, plants surviving the glyphosate treatment were collected in the field, transplanted to pots and further cultivated in the greenhouses. Surviving plants were treated with 600 g/ha glyphosate acid equivalent about 2 months later. 172 plants survived that treatment in a very healthy stage without any signs of herbicide damage.
# In order to identify the causative mutation behind the observed herbicide resistance sequencing analyses have been performed. […]
# [2] = acid form, 25° C.; cited from earlier work
smiles,measurement,setting,value
"O=C(O)CNCP(=O)(O)O [glyphosate, N-phosphonomethylglycine]",resistance conferred by heterozygous P179S mutation in BvEPSPS,"[1]; approx. 50% of standard field treatment level, based on screening and selection",complete resistance
same,plants that survived treatment in a very healthy stage without any signs of herbicide damage,[1]; potted greenhouse plants that had survived the ROUNDUP MAX field spray,172 plants
same,solubility in water,[2],1.16 % by weight

# — US20220039390A1, “USE OF […] FOR C[…] VEGETATION IN BETA VULGARIS GROWING AREAS” (KWS SAAT SE & Co. KGaA, priority 2018, published 2022)
